# Calls of active or inactive are those of the source. No cut-off for these calls is given here.
# Tested on: Hep 3B2
# Experiment: Induction of cell death in human Hep3B cells assessed as increase in number of dead cells at 10 to 20 uM measured after 24 hrs
# Type: functional, cell-based
# Conditions: dose 10-20 µM
row,SMILES,Activity
1,COc1ccc(-c2cc(C(F)(F)F)n3nc(-c4cccs4)cc3n2)cc1OC,Active

# Target: T1, Far upstream element-binding protein 1 (Homo sapiens, UniProt Q96AE4)
# T1 sequence (Q96AE4 whole entry): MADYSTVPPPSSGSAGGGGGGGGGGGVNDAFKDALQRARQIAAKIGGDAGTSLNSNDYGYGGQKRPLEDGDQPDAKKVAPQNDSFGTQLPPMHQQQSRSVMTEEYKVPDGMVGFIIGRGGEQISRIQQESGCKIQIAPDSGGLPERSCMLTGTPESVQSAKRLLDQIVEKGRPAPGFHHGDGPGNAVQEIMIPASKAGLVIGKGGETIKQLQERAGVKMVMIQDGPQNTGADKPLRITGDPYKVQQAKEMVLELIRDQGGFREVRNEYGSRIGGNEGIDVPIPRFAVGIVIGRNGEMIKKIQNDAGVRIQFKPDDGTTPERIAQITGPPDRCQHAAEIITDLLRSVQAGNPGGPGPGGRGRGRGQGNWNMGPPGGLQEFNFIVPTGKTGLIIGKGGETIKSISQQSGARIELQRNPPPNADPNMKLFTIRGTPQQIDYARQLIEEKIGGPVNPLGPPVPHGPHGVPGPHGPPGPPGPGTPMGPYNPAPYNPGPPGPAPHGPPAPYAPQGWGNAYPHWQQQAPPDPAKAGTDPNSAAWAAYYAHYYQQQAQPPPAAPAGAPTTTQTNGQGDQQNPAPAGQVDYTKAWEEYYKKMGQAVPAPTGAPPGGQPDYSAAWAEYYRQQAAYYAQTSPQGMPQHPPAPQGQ
# Experiment: Inhibition of 6xHis-tagged human FUBP1 expressed in HEK293T cells assessed as reduction in FUBP1 interaction with biotinylated NLC chip immobilized FUSE p21 oligonucleotide incubated for 21 hrs by SPR analysis
# Conditions: hek293t
row,IC50,SMILES
1,Not Active,FC(F)(F)c1cc(-c2ccc3ccccc3c2)nc2cc(-c3ccco3)nn12
2,Not Active,COc1ccc(-c2cc(C(F)(F)F)n3nc(-c4ccccc4)cc3n2)cc1OC
3,Not Active,FC(F)(F)c1cc(-c2ccncc2)nc2cc(-c3ccco3)nn12
4,Not Active,FC(F)(F)c1cc(-c2ccc3c(c2)OCO3)nc2cc(-c3ccco3)nn12
5,Not Active,FC(F)(F)c1cc(-c2ccccn2)nc2cc(C3CC3)nn12
6,Not Active,Cc1cc(C(F)(F)F)n2nc(-c3cccs3)cc2n1
7,Not Active,Cc1cc2nc(-c3ccncc3)cc(C(F)(F)F)n2n1
8,Not Active,FC(F)(F)c1cc(-c2ccco2)nc2cc(-c3ccco3)nn12
9,Not Active,Fc1ccc(-c2cc(C(F)(F)F)n3nc(-c4cccs4)cc3n2)cc1
10,Not Active,COc1ccc(-c2cc(C(F)(F)F)n3nc(C(C)(C)C)cc3n2)cc1OC
11,Not Active,O=[N+]([O-])c1cccc(-c2cc(C(F)(F)F)n3nc(-c4ccco4)cc3n2)c1
12,Not Active,FC(F)(F)c1cc(-c2ccc3c(c2)CCC3)nc2cc(-c3ccco3)nn12
13,Not Active,COc1ccc(-c2cc(C(F)(F)F)n3nc(-c4ccco4)cc3n2)cc1
14,Not Active,FC(F)(F)c1cc(-c2ccc(Cl)cc2)nc2cc(C3CC3)nn12
15,Not Active,FC(F)(F)c1cc(-c2cccc(Cl)c2)nc2cc(-c3cccs3)nn12
16,Not Active,FC(F)(F)c1cc(-c2ccc(Cl)cc2)nc2cc(-c3ccco3)nn12
17,Not Active,COc1ccc(-c2cc(C(F)(F)F)n3nc(-c4ccc(Cl)cc4)cc3n2)cc1OC
18,Not Active,FC(F)(F)c1cc(-c2cccs2)nc2cc(-c3ccco3)nn12
19,Not Active,FC(F)(F)c1cc(-c2nccs2)nc2cc(-c3cccs3)nn12

# Same assay, conditions: read-out: IC50
row,IC50 [µM],SMILES
1,> 100,COc1ccc(-c2cc(C(F)(F)F)n3nc(-c4cccs4)cc3n2)cc1
2,102,COc1ccc(-c2cc(C(F)(F)F)n3nc(C4CC4)cc3n2)cc1OC
3,> 100,FC(F)(F)c1cc(-c2ccncc2)nc2cc(-c3cccs3)nn12
4,> 100,FC(F)(F)c1cc(-c2ccccc2)nc2cc(-c3cccs3)nn12
5,> 100,FC(F)(F)c1cc(-c2ccc(Cl)cc2)nc2cc(-c3cccs3)nn12
6,> 100,FC(F)(F)c1cc(-c2cccs2)nc2cc(-c3cccs3)nn12
7,> 100,FC(F)(F)c1cc(-c2cccnc2)nc2cc(-c3cccs3)nn12

# Tested on: Hep 3B2
# Experiment: Decrease in cell expansion in human Hep3B cells at 10 to 20 uM measured after 48 to 72 hrs by Neubauer chamber method
# Type: functional, cell-based
# Conditions: dose 10-20 µM, time 48-72 hrs
row,SMILES,Activity
1,COc1ccc(-c2cc(C(F)(F)F)n3nc(-c4cccs4)cc3n2)cc1OC,Active

# Tested on: Hep 3B2
# Experiment: Cell cycle arrest in human Hep3B cells assessed as accumulation at sub-G1 phase at 20 uM measured after 24 hrs by propidium iodide and RNase A staining based Nicoletti assay (reference value: 2.5 %)
# Type: functional
# Conditions: not given
row,SMILES,Activity [%]
1,COc1ccc(-c2cc(C(F)(F)F)n3nc(-c4cccs4)cc3n2)cc1OC,16.1

# Tested on: Hep 3B2
# Experiment: Cell cycle arrest in human Hep3B cells assessed as accumulation at sub-G1 phase at 10 uM measured after 24 hrs by propidium iodide and RNase A staining based Nicoletti assay (reference value: 2.5 %)
# Type: functional
# Conditions: not given
row,SMILES,Activity [%]
1,COc1ccc(-c2cc(C(F)(F)F)n3nc(-c4cccs4)cc3n2)cc1OC,7.7

# Tested on: Huh-7
# Experiment: Decrease in cell expansion in human Huh-7 cells at 10 to 20 uM measured after 24 hrs by Neubauer chamber method
# Type: functional, cell-based
# Conditions: dose 10-20 µM
row,SMILES,Activity
1,COc1ccc(-c2cc(C(F)(F)F)n3nc(-c4cccs4)cc3n2)cc1OC,Active

# Tested on: HepG2
# Experiment: Decrease in cell expansion in human HepG2 cells at 10 to 20 uM measured after 48 to 72 hrs by Neubauer chamber method
# Type: functional, cell-based
# Conditions: dose 10-20 µM, time 48-72 hrs
row,SMILES,Activity
1,COc1ccc(-c2cc(C(F)(F)F)n3nc(-c4cccs4)cc3n2)cc1OC,Active

# Tested on: HepG2
# Experiment: Induction of cell death in human HepG2 cells assessed as increase in number of dead cells at 10 to 20 uM measured after 72 hrs
# Type: functional, cell-based
# Conditions: dose 10-20 µM
row,SMILES,Activity
1,COc1ccc(-c2cc(C(F)(F)F)n3nc(-c4cccs4)cc3n2)cc1OC,inactive

# From ChEMBL document CHEMBL4715785, “Pyrazolo[1,5a]pyrimidines as a new class of FUSE binding protein 1 (FUBP1) inhibitors” (Bioorg Med Chem, 2016)
